What was measured:
dog [1] = conditions: Sub-acute repeat dose toxicity; beagle; Oral; Gavage/Intubation; dose end: 14 day; group: systemic; systemic / in life observation / clinical signs / abnormal feces
rat [2] = conditions: Sub-acute repeat dose toxicity, Oral, Gavage/Intubation, dose end: 14 day, group: systemic
rat [3] = conditions: Sub-acute repeat dose toxicity, sprague dawley, Oral, Gavage/Intubation, dose end: 14 day, group: systemic
rat [4] = conditions: Carcinogenicity, fischer, Dermal, Topical, dose end: 105 week, group: systemic
rat [5] = conditions: Sub-acute dermal toxicity, fischer, Topical, dose end: 2 week, group: systemic, systemic / pathology microscopic / skin / hyperkeratosis + systemic / pathology microscopic / skin / hyperplasia + systemic / pathology …
mouse [6] = conditions: Carcinogenicity; b6c3f1; Dermal; Topical; dose end: 105 week; group: systemic; systemic / pathology microscopic / skin / hyperplasia + systemic / pathology microscopic / skin / inflammation
dog [7] = conditions: Other (NonGuideline or Guideline Not Listed); beagle; Oral; Feed; dose end: 13 week; group: cannot be grouped; systemic / clinical chemistry / thyroxine (t4) / thyroxine (t4), total + systemic / clinical chemistry / triiodothyronine (t3) / …
dog [8] = conditions: Subchronic oral toxicity in nonrodent, beagle, Feed, dose end: 90 day, group: systemic
rat [9] = conditions: Sub-acute dermal toxicity, wistar, Topical, dose end: 21 day, group: systemic, systemic / in life observation / clinical signs / erythema + systemic / in life observation / clinical signs / skin ulceration + systemic / …
rat [10] = conditions: Other (NonGuideline or Guideline Not Listed), Oral, Feed, dose end: 111 PND, group: cannot be grouped
mouse [11] = conditions: Sub-acute dermal toxicity, b6c3f1, Topical, dose end: 2 week, group: systemic, systemic / pathology gross / skin / [other] + systemic / pathology gross / skin / thickened + systemic / pathology gross / skin / ulcer + …
rat [12] = conditions: Subchronic dermal toxicity, fischer, Topical, dose end: 14 week, group: systemic
rat [13] = conditions: Prenatal developmental toxicity study, sprague dawley, Oral, Gavage/Intubation, dose end: 15 GD
dog [14] = conditions: Subchronic oral toxicity in nonrodent, beagle, Feed, dose end: 90 day, group: systemic, systemic / organ weight / ovary / relative to body weight + systemic / organ weight / thyroid gland / relative to body weight
mouse [15] = conditions: Subchronic oral toxicity in rodents, b6c3f1, Dermal, Topical, dose end: 14 week, group: systemic
rat [16] = conditions: Carcinogenicity; fischer; Oral; Gavage/Intubation; dose end: 103 week; group: systemic; systemic / in life observation / body weight / body weight
mouse [17] = conditions: Subchronic oral toxicity in rodents, b6c3f1, Gavage/Intubation, dose end: 13 week, group: systemic, systemic / in life observation / body weight / body weight
rat [18] = conditions: Subchronic oral toxicity in rodents, fischer, Gavage/Intubation, dose end: 13 week, group: systemic
mouse [19] = conditions: Carcinogenicity, b6c3f1, Oral, Gavage/Intubation, dose end: 103 week, group: systemic
[20] = systemic / in life observation / clinical signs / salivation
[21] = systemic / in life observation / clinical signs / urine staining - perineum + systemic / in life observation / clinical signs / salivation
[22] = systemic / clinical chemistry / glucose / glucose + systemic / clinical chemistry / urea nitrogen / urea nitrogen + systemic / clinical …
[23] = systemic / pathology gross / skin / [other] + systemic / pathology microscopic / skin / hyperkeratosis + systemic / pathology microscopic / …
[24] = systemic / pathology microscopic / skin / hyperkeratosis + systemic / pathology microscopic / skin / inflammation + systemic / pathology …
[25] = systemic / pathology microscopic / kidney / pigmentation + systemic / pathology microscopic / spleen / hematopoietic cell proliferation
[26] = systemic / in life observation / body weight / body weight gain + systemic / in life observation / food consumption / food consumption
[27] = systemic / in life observation / body weight / body weight gain + systemic / in life observation / food consumption / food consumption + …
[28] = systemic / pathology microscopic / skin / hyperkeratosis
[29] = systemic / pathology microscopic / skin / hyperkeratosis + systemic / pathology microscopic / skin / hyperplasia + systemic / pathology …
[30] = group: developmental, developmental / developmental malformation / [other] / [other]
[31] = group: maternal, systemic / in life observation / body weight / body weight gain + reproductive / reproductive performance / resorptions / resorptions
[32] = systemic / organ weight / lung / absolute + systemic / organ weight / lung / relative to body weight
[33] = systemic / organ weight / lung / absolute + systemic / organ weight / lung / relative to body weight + systemic / organ weight / liver / …
[34] = systemic / in life observation / body weight / body weight + systemic / in life observation / mortality / mortality + systemic / pathology …
[35] = systemic / pathology microscopic / liver / hypertrophy + systemic / pathology microscopic / liver / necrosis + systemic / pathology …

With `O=C(O)CCN(C1(C(=O)NO)CCCC1)S(=O)(=O)c1ccc(Oc2ccc(F)cc2)cc1` the LEL (dog [1]) was 250 mg/kg/day, the LOAEL (dog [1]) was > 250 mg/kg/day and the NEL (dog [1]) was 50 mg/kg/day. For the same compound, the NOAEL (dog [1]) was ≥ 250 mg/kg/day, the LEL (rat [2]; [20]) was 300 mg/kg/day and the NEL (rat [2]; [20]) was < 300 mg/kg/day. For the same compound, the LOAEL (rat [2]; [21]) was > 500 mg/kg/day, the NOAEL (rat [2]; [21]) was ≥ 500 mg/kg/day and the LEL (rat [3]; systemic / clinical chemistry / glucose / glucose + systemic / clinical chemistry / urea nitrogen / urea nitrogen) was 150 mg/kg/day. For the same compound, the LOAEL (rat [3]; [22]) was > 500 mg/kg/day and the NOAEL (rat [3]; [22]) was ≥ 500 mg/kg/day.

In the case of `N#CCCC(Br)(C#N)CBr` (stereo not drawn) [1,2-Dibromo-2,4-dicyanobutane], the LOAEL (rat [4]; [23]) was 6 mg/kg/day, the NOAEL (rat [4]; [23]) was 2 mg/kg/day and the LEL (rat [4]; [24]) was 2 mg/kg/day. The NEL (rat [4]; [24]) was < 2 mg/kg/day, the LEL (rat [5]) was 37.5 mg/kg/day and the LOAEL (rat [5]) was 37.5 mg/kg/day. The NEL (rat [5]) was < 37.5 mg/kg/day, the NOAEL (rat [5]) was < 37.5 mg/kg/day and the LEL (mouse [6]) was 0.6 mg/kg/day. The LOAEL (mouse [6]) was 0.6 mg/kg/day, the NEL (mouse [6]) was < 0.6 mg/kg/day and the NOAEL (mouse [6]) was < 0.6 mg/kg/day. For the same compound, the LEL (dog [7]) was 4.17 mg/kg/day, the LOAEL (dog [7]) was 4.17 mg/kg/day and the NEL (dog [7]) was < 4.17 mg/kg/day. The NOAEL (dog [7]) was < 4.17 mg/kg/day, the LOAEL (dog [8]; systemic / in life observation / clinical signs / defecation (diarrhea) + systemic / in life observation / clinical signs / emesis) was 3.11 mg/kg/day and the NOAEL (dog [8]; systemic / in life observation / clinical signs / defecation (diarrhea) + systemic / in life observation / clinical signs / emesis + …) was 0.331 mg/kg/day. For the same compound, the LEL (dog [8]; [25]) was 0.288 mg/kg/day, the NEL (dog [8]; [25]) was < 0.288 mg/kg/day and the LEL (rat [9]) was 1000 mg/kg/day. The LOAEL (rat [9]) was 1000 mg/kg/day, the NEL (rat [9]) was < 1000 mg/kg/day and the NOAEL (rat [9]) was < 1000 mg/kg/day. The NEL (rat [10]; [26]) was 4.17 mg/kg/day, the NOAEL (rat [10]; [26]) was 4.17 mg/kg/day and the LEL (rat [10]; [27]) was 25 mg/kg/day. The LOAEL (rat [10]; [27]) was 25 mg/kg/day, the LEL (mouse [11]) was 75 mg/kg/day and the LOAEL (mouse [11]) was 75 mg/kg/day. The NEL (mouse [11]) was < 75 mg/kg/day, the NOAEL (mouse [11]) was < 75 mg/kg/day and the LEL (rat [12]; [28]) was 0.2 mg/kg/day. For the same compound, the NEL (rat [12]; [28]) was < 0.2 mg/kg/day, the LOAEL (rat [12]; [29]) was 2 mg/kg/day and the NOAEL (rat [12]; [29]) was 0.6 mg/kg/day. It also gave an LEL (rat [13]; [30]) of 100 mg/kg/day, an LOAEL (rat [13]; [30]) of 100 mg/kg/day and an NEL (rat [13]; [30]) of 25 mg/kg/day. The NOAEL (rat [13]; [30]) was 25 mg/kg/day, the LEL (rat [13]; [31]) was 100 mg/kg/day and the LOAEL (rat [13]; [31]) was 100 mg/kg/day. The NEL (rat [13]; [31]) was 25 mg/kg/day, the NOAEL (rat [13]; [31]) was 25 mg/kg/day and the LEL (dog [14]) was 4.17 mg/kg/day. For the same compound, the LOAEL (dog [14]) was 4.17 mg/kg/day, the NEL (dog [14]) was < 4.17 mg/kg/day and the NOAEL (dog [14]) was < 4.17 mg/kg/day. The LEL (mouse [15]; [32]) was 0.2 mg/kg/day, the NEL (mouse [15]; [32]) was < 0.2 mg/kg/day and the LOAEL (mouse [15]; [33]) was > 18 mg/kg/day. For the same compound, the NOAEL (mouse [15]; [33]) was ≥ 18 mg/kg/day.

In the case of `CC(Cl)CCl` (stereo not drawn) [1,2-Dichloropropane], the LEL (rat [16]) was 62 mg/kg/day, the LOAEL (rat [16]) was 125 mg/kg/day and the NEL (rat [16]) was < 62 mg/kg/day. For the same compound, the LEL (mouse [17]) was 30 mg/kg/day, the LOAEL (mouse [17]) was 500 mg/kg/day and the NEL (mouse [17]) was < 30 mg/kg/day. The NOAEL (mouse [17]) was 250 mg/kg/day, the LEL (rat [18]; systemic / in life observation / body weight / body weight + systemic / in life observation / mortality / mortality) was 500 mg/kg/day and the LOAEL (rat [18]; [34]) was > 1000 mg/kg/day. The NEL (rat [18]; [34]) was 250 mg/kg/day, the NOAEL (rat [18]; [34]) was ≥ 1000 mg/kg/day and the LOAEL (mouse [19]; systemic / pathology microscopic / liver / hypertrophy + systemic / pathology microscopic / liver / necrosis) was 250 mg/kg/day. The LEL (mouse [19]; [35]) was 125 mg/kg/day, the NEL (mouse [19]; [35]) was < 125 mg/kg/day and the NOAEL (mouse [19]; [35]) was 125 mg/kg/day.

Source: EPA's ToxRefDB 2
